Reference: paper PMC10337138 (Acta Neuropathologica Communications, 2023)

What was measured:
Conditions in all cases: 1 mM ATP; inhibitor
CDK1/E1 = CDK1/E1 (Homo sapiens, UniProt P06493)
Description: (§1) Kinase selectivity panel Kinome profiling was conducted by AssayQuant Technologies (Marlboro, MA) using Sox chromophore technology and Sox-based peptide substrates developed for human kinases in a 384-well format. Compounds were tested at 1 µM in the presence of 1 mM ATP.

MUSK = MUSK (Homo sapiens, UniProt O15146)
Chain of MUSK (O15146 whole entry): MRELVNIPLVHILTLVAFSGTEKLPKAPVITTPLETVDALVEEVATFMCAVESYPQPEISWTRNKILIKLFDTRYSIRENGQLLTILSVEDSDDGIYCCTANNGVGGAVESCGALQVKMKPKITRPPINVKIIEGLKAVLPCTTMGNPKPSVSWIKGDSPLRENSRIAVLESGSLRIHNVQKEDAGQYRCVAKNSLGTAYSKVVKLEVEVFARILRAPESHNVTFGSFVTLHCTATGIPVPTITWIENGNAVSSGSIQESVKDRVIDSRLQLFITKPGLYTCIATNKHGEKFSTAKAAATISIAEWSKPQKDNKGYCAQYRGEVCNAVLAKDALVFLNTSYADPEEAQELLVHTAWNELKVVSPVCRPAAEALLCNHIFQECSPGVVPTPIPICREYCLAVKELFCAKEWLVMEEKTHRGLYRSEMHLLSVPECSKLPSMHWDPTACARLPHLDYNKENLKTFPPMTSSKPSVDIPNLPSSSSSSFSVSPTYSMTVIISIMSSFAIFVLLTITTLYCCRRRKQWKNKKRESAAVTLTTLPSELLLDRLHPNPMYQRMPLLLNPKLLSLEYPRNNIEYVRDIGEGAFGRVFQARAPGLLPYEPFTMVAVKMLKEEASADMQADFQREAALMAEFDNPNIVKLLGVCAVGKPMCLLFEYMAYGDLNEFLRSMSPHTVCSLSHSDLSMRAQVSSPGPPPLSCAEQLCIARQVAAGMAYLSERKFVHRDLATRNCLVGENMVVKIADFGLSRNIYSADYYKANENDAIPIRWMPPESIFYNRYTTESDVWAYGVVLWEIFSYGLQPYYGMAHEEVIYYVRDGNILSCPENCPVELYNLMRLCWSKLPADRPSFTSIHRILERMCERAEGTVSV
Description: as §1

TAOK2 = TAOK2 (Homo sapiens, UniProt Q9UL54)
Description: as §1

GRK4 = GRK4 (Homo sapiens, UniProt P32298)
Description: as §1

MYO3A = MYO3A (Homo sapiens, UniProt Q8NEV4)
Description: as §1

CAMK4 = CAMK4 (Homo sapiens, UniProt Q16566)
Description: as §1

MAP4K4/HGK = MAP4K4/HGK (Homo sapiens, UniProt O95819)
Description: as §1

PRKX = PRKX (Homo sapiens, UniProt P51817)
Description: as §1

DYRK2 = DYRK2 (Homo sapiens, UniProt Q92630)
Description: as §1

RPS6KA4/MSK2 = RPS6KA4/MSK2 (Homo sapiens, UniProt O75676)
Description: as §1

KSR2 = KSR2 (Homo sapiens, UniProt Q6VAB6)
Description: as §1

EPHA7 = EPHA7 (Homo sapiens, UniProt Q15375)
Description: as §1

PLK2 = PLK2 (Homo sapiens, UniProt Q9NYY3)
Description: as §1

MAP3K7 = MAP3K7 (Homo sapiens, UniProt O43318)
Description: as §1

SIK2 = SIK2 (Homo sapiens, UniProt Q9H0K1)
Description: as §1

AXL = AXL (Homo sapiens, UniProt P30530)
Description: as §1

MAP3K14 = MAP3K14 (Homo sapiens, UniProt Q99558)
Description: as §1

NLK = NLK (Homo sapiens, UniProt Q9UBE8)
Chain of NLK (Q9UBE8 whole entry): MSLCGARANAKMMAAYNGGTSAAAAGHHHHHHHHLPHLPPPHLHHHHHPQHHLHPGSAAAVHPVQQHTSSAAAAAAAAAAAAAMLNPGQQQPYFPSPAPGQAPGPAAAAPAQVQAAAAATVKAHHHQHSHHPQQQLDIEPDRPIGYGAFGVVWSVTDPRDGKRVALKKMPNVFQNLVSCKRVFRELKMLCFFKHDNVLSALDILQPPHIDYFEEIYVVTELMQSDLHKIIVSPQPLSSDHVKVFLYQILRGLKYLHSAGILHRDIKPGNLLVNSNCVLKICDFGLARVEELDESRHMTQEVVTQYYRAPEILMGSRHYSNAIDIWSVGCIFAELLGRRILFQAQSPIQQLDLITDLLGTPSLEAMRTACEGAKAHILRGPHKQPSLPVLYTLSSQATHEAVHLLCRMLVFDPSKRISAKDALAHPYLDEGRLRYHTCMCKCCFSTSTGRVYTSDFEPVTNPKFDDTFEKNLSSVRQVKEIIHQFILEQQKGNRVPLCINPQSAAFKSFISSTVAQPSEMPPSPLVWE
Description: as §1

EPHA5 = EPHA5 (Homo sapiens, UniProt P54756)
Description: as §1

CRIK/CIT = CRIK/CIT (Homo sapiens, UniProt O14578)
Chain of CRIK/CIT (O14578 whole entry): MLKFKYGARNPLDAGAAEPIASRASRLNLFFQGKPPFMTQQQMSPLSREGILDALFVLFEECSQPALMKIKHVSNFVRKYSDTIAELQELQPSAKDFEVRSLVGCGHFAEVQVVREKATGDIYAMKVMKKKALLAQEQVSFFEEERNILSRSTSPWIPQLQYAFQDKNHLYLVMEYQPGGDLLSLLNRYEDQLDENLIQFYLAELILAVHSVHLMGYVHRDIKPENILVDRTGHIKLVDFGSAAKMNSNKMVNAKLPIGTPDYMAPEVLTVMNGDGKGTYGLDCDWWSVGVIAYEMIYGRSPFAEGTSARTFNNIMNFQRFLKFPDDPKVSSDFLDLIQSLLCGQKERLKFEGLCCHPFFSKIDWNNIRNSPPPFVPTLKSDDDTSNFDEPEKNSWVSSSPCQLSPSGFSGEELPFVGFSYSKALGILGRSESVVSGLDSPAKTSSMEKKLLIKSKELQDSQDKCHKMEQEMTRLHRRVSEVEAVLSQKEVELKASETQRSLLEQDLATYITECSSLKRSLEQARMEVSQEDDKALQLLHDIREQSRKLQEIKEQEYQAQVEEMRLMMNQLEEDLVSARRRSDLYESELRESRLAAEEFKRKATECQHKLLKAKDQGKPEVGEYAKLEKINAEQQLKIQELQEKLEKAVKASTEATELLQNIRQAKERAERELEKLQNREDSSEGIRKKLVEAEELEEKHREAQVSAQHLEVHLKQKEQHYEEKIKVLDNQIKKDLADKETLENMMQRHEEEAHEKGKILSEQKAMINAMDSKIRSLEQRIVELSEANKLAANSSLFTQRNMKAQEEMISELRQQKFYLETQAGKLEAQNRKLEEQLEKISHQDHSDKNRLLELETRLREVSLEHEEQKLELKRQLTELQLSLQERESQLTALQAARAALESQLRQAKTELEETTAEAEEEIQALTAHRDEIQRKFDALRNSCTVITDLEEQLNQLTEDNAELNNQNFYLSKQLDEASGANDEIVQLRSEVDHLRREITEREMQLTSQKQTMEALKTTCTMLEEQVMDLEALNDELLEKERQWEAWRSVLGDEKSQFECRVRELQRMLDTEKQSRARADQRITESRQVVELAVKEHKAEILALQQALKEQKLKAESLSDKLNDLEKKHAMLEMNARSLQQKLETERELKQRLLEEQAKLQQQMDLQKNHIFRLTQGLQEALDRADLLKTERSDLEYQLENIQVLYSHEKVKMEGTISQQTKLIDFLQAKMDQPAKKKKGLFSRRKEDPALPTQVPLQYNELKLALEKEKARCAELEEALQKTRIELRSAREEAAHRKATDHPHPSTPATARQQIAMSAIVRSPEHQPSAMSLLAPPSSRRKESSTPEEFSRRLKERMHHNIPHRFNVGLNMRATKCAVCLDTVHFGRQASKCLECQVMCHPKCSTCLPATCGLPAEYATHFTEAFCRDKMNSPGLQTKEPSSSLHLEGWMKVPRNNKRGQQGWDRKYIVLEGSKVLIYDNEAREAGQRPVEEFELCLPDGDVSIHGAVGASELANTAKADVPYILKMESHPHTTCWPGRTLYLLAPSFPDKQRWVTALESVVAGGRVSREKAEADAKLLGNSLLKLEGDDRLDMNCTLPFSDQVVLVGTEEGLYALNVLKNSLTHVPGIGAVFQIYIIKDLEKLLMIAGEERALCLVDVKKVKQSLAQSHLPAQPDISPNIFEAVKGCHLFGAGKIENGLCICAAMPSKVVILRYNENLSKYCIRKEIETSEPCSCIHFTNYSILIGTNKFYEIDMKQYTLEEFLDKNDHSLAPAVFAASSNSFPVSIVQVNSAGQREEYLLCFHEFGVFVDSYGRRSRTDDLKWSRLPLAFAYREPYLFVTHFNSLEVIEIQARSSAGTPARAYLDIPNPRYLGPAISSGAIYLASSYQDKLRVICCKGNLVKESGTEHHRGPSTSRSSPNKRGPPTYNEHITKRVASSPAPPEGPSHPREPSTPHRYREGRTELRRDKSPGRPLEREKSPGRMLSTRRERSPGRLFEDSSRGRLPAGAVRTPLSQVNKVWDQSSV
Description: as §1

AAK1 = AAK1 (Homo sapiens, UniProt Q2M2I8)
Description: as §1

TEC = TEC (Homo sapiens, UniProt P42680)
Description: as §1

TOPK = biological target: T1, TOPK (Homo sapiens, UniProt Q96KB5)
T1 construct: gene PBK
Description: as §1

NEK5 = NEK5 (Homo sapiens, UniProt Q6P3R8)
Description: as §1

DRAK1 = biological target: T2, DRAK1 (Homo sapiens, UniProt Q9UEE5)
T2 construct: gene STK17A
T2 sequence (Q9UEE5 whole entry): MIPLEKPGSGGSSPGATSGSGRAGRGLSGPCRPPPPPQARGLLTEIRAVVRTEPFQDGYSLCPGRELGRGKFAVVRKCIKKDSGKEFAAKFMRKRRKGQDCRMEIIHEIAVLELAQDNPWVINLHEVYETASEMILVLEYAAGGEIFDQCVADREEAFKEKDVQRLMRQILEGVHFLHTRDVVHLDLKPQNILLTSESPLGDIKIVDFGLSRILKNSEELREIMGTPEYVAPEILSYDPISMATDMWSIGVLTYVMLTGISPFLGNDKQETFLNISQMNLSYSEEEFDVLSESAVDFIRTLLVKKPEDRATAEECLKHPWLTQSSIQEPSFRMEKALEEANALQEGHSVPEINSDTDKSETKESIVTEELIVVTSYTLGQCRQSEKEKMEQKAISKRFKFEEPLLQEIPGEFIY
Description: as §1

AKT1 = AKT1 (Homo sapiens, UniProt P31749)
Description: as §1

AKT2 = AKT2 (Homo sapiens, UniProt P31751)
Description: as §1

MAPK11/P38B = MAPK11/P38B (Homo sapiens, UniProt Q15759)
Chain of MAPK11/P38B (Q15759 whole entry): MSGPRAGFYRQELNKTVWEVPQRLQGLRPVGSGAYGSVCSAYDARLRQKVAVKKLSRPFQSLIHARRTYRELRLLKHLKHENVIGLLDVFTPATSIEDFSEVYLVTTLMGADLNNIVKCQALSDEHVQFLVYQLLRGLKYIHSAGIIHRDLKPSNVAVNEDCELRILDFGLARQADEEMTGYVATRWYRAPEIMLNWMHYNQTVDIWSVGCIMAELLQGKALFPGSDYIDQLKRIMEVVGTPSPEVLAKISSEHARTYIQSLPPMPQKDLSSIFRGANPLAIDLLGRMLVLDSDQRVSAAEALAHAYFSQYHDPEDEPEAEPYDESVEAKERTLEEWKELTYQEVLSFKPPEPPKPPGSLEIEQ
Description: as §1

PAK1 = PAK1 (Homo sapiens, UniProt Q13153)
Chain of PAK1 (Q13153 whole entry): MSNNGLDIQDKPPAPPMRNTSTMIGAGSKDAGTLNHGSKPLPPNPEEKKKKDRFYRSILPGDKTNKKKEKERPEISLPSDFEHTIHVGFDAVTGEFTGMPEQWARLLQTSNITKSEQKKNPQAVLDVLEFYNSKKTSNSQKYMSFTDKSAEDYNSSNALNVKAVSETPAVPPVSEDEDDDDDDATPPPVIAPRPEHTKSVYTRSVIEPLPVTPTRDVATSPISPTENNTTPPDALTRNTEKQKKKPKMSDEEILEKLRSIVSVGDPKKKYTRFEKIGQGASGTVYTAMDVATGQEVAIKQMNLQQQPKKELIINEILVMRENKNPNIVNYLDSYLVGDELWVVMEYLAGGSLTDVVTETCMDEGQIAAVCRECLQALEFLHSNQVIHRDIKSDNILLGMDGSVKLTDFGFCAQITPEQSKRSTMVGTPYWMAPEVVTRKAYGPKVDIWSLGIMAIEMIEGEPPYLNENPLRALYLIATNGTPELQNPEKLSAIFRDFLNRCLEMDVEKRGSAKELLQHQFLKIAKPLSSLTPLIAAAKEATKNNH
Description: as §1

FLT3 = FLT3 (Homo sapiens, UniProt P36888)
Description: as §1

PRKD2 = PRKD2 (Homo sapiens, UniProt Q9BZL6)
Description: as §1

PKN1 = PKN1 (Homo sapiens, UniProt Q16512)
Description: as §1

TSSK3 = TSSK3 (Homo sapiens, UniProt Q96PN8)
Chain of TSSK3 (Q96PN8 whole entry): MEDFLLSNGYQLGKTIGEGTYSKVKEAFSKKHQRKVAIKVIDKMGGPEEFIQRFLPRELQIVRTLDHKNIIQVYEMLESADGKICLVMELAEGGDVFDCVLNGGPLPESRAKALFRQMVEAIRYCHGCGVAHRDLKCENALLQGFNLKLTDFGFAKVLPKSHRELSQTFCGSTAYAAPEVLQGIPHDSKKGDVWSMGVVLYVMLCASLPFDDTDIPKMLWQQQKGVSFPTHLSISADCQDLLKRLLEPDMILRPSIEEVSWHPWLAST
Description: as §1

IRAK1 = IRAK1 (Homo sapiens, UniProt P51617)
Description: as §1

FAM20C = FAM20C (Homo sapiens, UniProt Q8IXL6)
Description: as §1

CAMK2B = CAMK2B (Homo sapiens, UniProt Q13554)
Description: as §1

GRK7 = GRK7 (Homo sapiens, UniProt Q8WTQ7)
Description: as §1

TAOK1 = TAOK1 (Homo sapiens, UniProt Q7L7X3)
Description: as §1

NUAK2 = NUAK2 (Homo sapiens, UniProt Q9H093)
Description: as §1

## C=CC(=O)N1CCC[C@@H](n2nc(-c3ccc(Oc4ccccc4)cc3)c3c(N)ncnc32)C1 [Ibrutinib]
CDK1/E1
  1 µM GBD00276 (ibrutinib), % inhibition: -2.236%
MUSK
  1 µM GBD00276 (ibrutinib), % inhibition: 8.501%
TAOK2
  1 µM GBD00276 (ibrutinib), % inhibition: 11.03%
GRK4
  1 µM GBD00276 (ibrutinib), % inhibition: 18.83%
MYO3A
  1 µM GBD00276 (ibrutinib), % inhibition: -10.26%
CAMK4
  1 µM GBD00276 (ibrutinib), % inhibition: 3.011%
MAP4K4/HGK
  1 µM GBD00276 (ibrutinib), % inhibition: -8.478%
PRKX
  1 µM GBD00276 (ibrutinib), % inhibition: 11.47%
DYRK2
  1 µM GBD00276 (ibrutinib), % inhibition: 14.5%
RPS6KA4/MSK2
  1 µM GBD00276 (ibrutinib), % inhibition: 6.848%
KSR2
  1 µM GBD00276 (ibrutinib), % inhibition: 3.265%
EPHA7
  1 µM GBD00276 (ibrutinib), % inhibition: -0.6285%
PLK2
  1 µM GBD00276 (ibrutinib), % inhibition: -1.576%
MAP3K7
  1 µM GBD00276 (ibrutinib), % inhibition: -2.955%
SIK2
  1 µM GBD00276 (ibrutinib), % inhibition: -7.577%
AXL
  1 µM GBD00276 (ibrutinib), % inhibition: -6.462%
MAP3K14
  1 µM GBD00276 (ibrutinib), % inhibition: -11.44%
NLK
  1 µM GBD00276 (ibrutinib), % inhibition: -34.47%
EPHA5
  1 µM GBD00276 (ibrutinib), % inhibition: -3.884%
CRIK/CIT
  1 µM GBD00276 (ibrutinib), % inhibition: -0.4372%
AAK1
  1 µM GBD00276 (ibrutinib), % inhibition: 6.339%
TEC
  1 µM GBD00276 (ibrutinib), % inhibition: 98.943%
TOPK
  1 µM GBD00276 (ibrutinib), % inhibition: -5.913%
NEK5
  1 µM GBD00276 (ibrutinib), % inhibition: 12.71%
DRAK1
  1 µM GBD00276 (ibrutinib), % inhibition: 18.73%
AKT1
  1 µM GBD00276 (ibrutinib), % inhibition: 16.85%
AKT2
  1 µM GBD00276 (ibrutinib), % inhibition: 17.43%
MAPK11/P38B
  1 µM GBD00276 (ibrutinib), % inhibition: -0.6084%
PAK1
  1 µM GBD00276 (ibrutinib), % inhibition: 16.51%
FLT3
  1 µM GBD00276 (ibrutinib), % inhibition: 20.23%
PRKD2
  1 µM GBD00276 (ibrutinib), % inhibition: -18.67%
PKN1
  1 µM GBD00276 (ibrutinib), % inhibition: -1.102%
TSSK3
  1 µM GBD00276 (ibrutinib), % inhibition: -3.43%
IRAK1
  1 µM GBD00276 (ibrutinib), % inhibition: 5.215%
FAM20C
  1 µM GBD00276 (ibrutinib), % inhibition: 3.541%
CAMK2B
  1 µM GBD00276 (ibrutinib), % inhibition: 4.39%
GRK7
  1 µM GBD00276 (ibrutinib), % inhibition: 3.056%
TAOK1
  1 µM GBD00276 (ibrutinib), % inhibition: 0.7765%
NUAK2
  1 µM GBD00276 (ibrutinib), % inhibition: 3.408%
